According to patent US20110071158A1, “NEW COMPOUNDS” (BOEHRINGER INGELHEIM INTERNATIONAL GMBH, priority 2009, published 2011):

Columns and labels:
[1] = target: T1, PTK2 enzyme (Homo sapiens, UniProt Q05397); assay: PTK2 enzyme test, Assay 2 (DELFIA, poly-Glu-Tyr substrate, antibody PT66); type: biochemical; details: Assay 2 (values marked *); 1 h pre-incubation, 0.5% DMSO
T1 construct: purchased Invitrogen PV3832
From the text: This test uses active PTK2 enzyme (Invitrogen Code PV3832) and poly-Glu-Tyr (4:1, Sigma P-0275) as the kinase substrate. The kinase activity is detected by means of the phosphorylation of the substrate in a DELFIA™ assay. The phosphorylated substrate is detected with the europium-labelled phosphotyrosine antibody PT66 (Perkin Elmer, No.: AD0040).
In order to determine concentration-activity curves with PTK2-inhibitors the compounds are serially diluted first of all in 10% DMSO/H2O and then in kinase dilution buffer (20 mM TRIS/HCl pH 7.5, 0.1 mM EDTA, 0.1 mM EGTA, 0.286 mM sodium orthovanadate, 10% glycerol with the addition of freshly prepared BSA (fraction V, 1 mg/mL) and DTT (1 mM)) and 10 μL of each dilution are dispensed per well in a 96-well microtitre plate (clear U-shaped base plate, Greiner No. 650101) (the inhibitors are tested in duplicates) and mixed with 10 μL/well of PTK2 kinase (0.01 μg/well). PTK2 kinase is diluted accordingly beforehand with kinase dilution buffer. The diluted PTK2 inhibitor and the PTK2 kinase are pre-incubated for 1 h at RT and shaken at 500 revolutions per min. Then 10 μL/well poly-Glu-Tyr substrate (25 μg/well poly-Glu-Tyr, 0.05 μg/well biotinylated poly-Glu-Tyr dissolved in 250 mM TRIS/HCl pH 7.5, 9 mM DTT) are added. The reaction is started by the addition of 20 μL of ATP Mix (30 mM TRIS/HCl pH 7.5, 0.02% Brij, 0.2 mM sodium orthovanadate, 10 mM magnesium acetate, 0.1 mM EGTA, 1× phosphatase inhibitor cocktail 1 (Sigma, No.: P2850), 50 μM ATP (Sigma, No.: A3377; 15 mM stock solution))—the final concentration of DMSO is 0.5%. After 1 h kinase reaction (the plates are shaken at 500 rpm), the reaction is stopped by the addition of 12 μL/well of 100 mM EDTA, pH 8, and shaken for a further 5 min at RT (500 U/min). 55 μL of the reaction mixture are transferred into a streptavidin plate (Strepta Well High Bind (transparent, 96-well) made by Roche, No.: 11989685001) and incubated for 1 h at RT (shaking at 500 rpm). Then the microtitre plate is washed five times with 200 μL/well D-PBS (Invitrogen, No. 14190). 100 μL of a solution containing DELFIA Eu-N1 Anti-Phosphotyrosine PT66 antibody (Perkin Elmer, No.: AD0040, diluted 1:9000 in DELFIA test buffer (Perkin Elmer, No.: 1244-111)) is then added and it is incubated for 1 h at RT (shaking at 500 rpm). Then the plate is washed five times with 200 μL/well DELFIA washing buffer (Perkin Elmer, No.: 1244-114), 200 μL/well strengthening solution (Perkin Elmer, No.: 1244-105) is added and the whole is incubated for 10 min at RT (shaking at 300 rpm).
The time-delayed europium fluorescence is then measured in a microtitre plate reader (Victor, Perkin Elmer). The positive control consists of wells that contain solvent (0.5% DMSO in test buffer) and display uninhibited kinase activity. Wells that contain test buffer instead of enzyme act as a control for the background kinase activity.
The IC50 values are determined from concentration-activity analyses by iterative calculation using a sigmoid curve analysis algorithm (FIFTY, based on Graph PAD Prism Version 3.03) with a variable Hill coefficient.

[2] = target: T2, Xenopus laevis Aurora B/INCENP complex (Xenopus laevis, UniProt Q6DE08); assay: Aurora-B kinase assay (radioactive enzyme inhibition); type: biochemical
T2 construct: equipped at the N-terminal position with a GST tag (amino acids 60-361); GST (N, cleaved yes); made in house; host or cells: E. coli BL21 (DE3)
T2 sequence (Q6DE08 60-361): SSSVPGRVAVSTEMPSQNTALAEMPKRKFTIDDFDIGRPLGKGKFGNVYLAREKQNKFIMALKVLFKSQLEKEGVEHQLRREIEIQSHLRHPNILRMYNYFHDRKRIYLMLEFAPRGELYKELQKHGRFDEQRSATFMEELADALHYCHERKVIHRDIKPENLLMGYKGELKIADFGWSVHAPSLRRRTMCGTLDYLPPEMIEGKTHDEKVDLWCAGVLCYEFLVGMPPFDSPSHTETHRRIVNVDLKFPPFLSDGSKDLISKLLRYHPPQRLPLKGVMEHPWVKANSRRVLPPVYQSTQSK
T2 sequence (O13024 790-847 partner): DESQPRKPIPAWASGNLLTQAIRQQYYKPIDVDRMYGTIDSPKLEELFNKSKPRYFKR
From the text: A radioactive enzyme inhibition assay was developed using E. coli-expressed recombinant Xenopus laevis Aurora B wild-type protein equipped at the N-terminal position with a GST tag (amino acids 60-361) in a complex with Xenopus laevis INCENP (amino acids 790-847), which is obtained from bacteria and purified. In equivalent manner a Xenopus laevis Aurora B mutant (G96V) in a complex with Xenopus laevis INCENP^790-847 may also be used.
The coding sequence for Aurora-B^60-361 from Xenopus laevis is cloned into a modified version of pGEX-6T (Amersham Biotech) via BamHI and SalI cutting sites. The vector contains two cloning cassettes which are separated by a ribosomal binding site, allowing bi-cistronic expression. In this configuration Xenopus laevis Aurora B is expressed by the first cassette, and the Xenopus laevis INCENP^790-847 is expressed by the second cassette. The resulting vector is pAUB-IN^847.
First of all the E. coli strain BL21 (DE3) is co-transformed with pUBS520 helper plasmid and pAUB-IN^847, after which protein expression is induced using 0.3 mM IPTG at an OD600 of 0.45-0.7. The expression is then continued for approx. 12-16 h at 23-25° C. with agitation.
The bacteria are then removed by centrifuging and the pellet is lysed in lysis buffer (50 mM Tris/Cl pH 7.6, 300 mM NaCl, 1 mM DTT, 1 mM EDTA, 5% glycerol, Roche Complete Protease Inhibitor tablets) using ultrasound, using 20-30 mL lysis buffer per litre of E. coli culture. The lysed material is freed from debris by centrifugation (12000 rpm, 45-60 min, JA20 rotor). The supernatant is incubated with […] of equilibrated GST Sepharose Fast Flow (Amersham Biosciences) per litre of E. coli culture for 4-5 h at 4° C. Then the column material is washed with 30 volumes of lysis buffer and then equilibrated with 30 volumes of cleavage buffer (50 mM Tris/Cl pH 7.6, 150 mM NaCl, 1 mM DTT, 1 mM EDTA). To cleave the GST tag from Aurora B, 10 units of Prescission Protease (Amersham Biosciences) are used per milligram of substrate and the mixture is incubated for 16 h at 4° C. The supernatant which contains the cleavage product is loaded onto a 6 mL Resource Q column (Amersham Biosciences) equilibrated with ion exchange buffer (50 mM Tris/Cl pH 7.6, 150 mM NaCl, 1 mM DTT, 1 mM EDTA). The Aurora B/INCENP complex is caught as it flows through, then concentrated and loaded onto a Superdex 200 size exclusion chromatography (SEC) column equilibrated with SEC buffer (10 mM Tris/Cl pH 7.6, 150 mM NaCl, 1 mM DTT, 1 mM EDTA). Fractions which contain the AuroraB/INCENP complex are collected and concentrated using Vivaspin concentrators (molecular weight exclusion 3000-5000 Da) to a final concentration of 12 mg/mL. Aliquots (e.g. 240 ng/μL) for kinase assays are transferred from this stock solution into freezing buffer (50 mM Tris/Cl pH 8.0, 150 mM NaCl, 0.1 mM EDTA, 0.03% Brij-35, 10% glycerol, 1 mM DTT) and stored at −80° C.
Test substances are placed in a polypropylene dish (96 wells, Greiner #655 201), in order to cover a concentration frame of 10 μM-0.0001 μM. The final concentration of DMSO in the assay is 5%. 30 μL of protein mix (50 mM Tris/Cl pH 7.5, 25 mM MgCl2, 25 mM NaCl, 167 μM ATP, 10 ng Xenopus laevis Aurora B/INCENP complex in freezing buffer) are pipetted into the 10 μl of test substance provided in 25% DMSO and this is incubated for 15 min at RT. Then 10 μL of peptide mix (100 mM Tris/Cl pH 7.5, 50 mM MgCl2, 50 mM NaCl, 5 μM NaF, 5 μM DTT, 1 μCi gamma-P33-ATP [Amersham], 50 μM substrate peptide [biotin-EPLERRLSLVPDS or multimers thereof, or biotin-EPLERRLSLVPKM or multimers thereof, or biotin-[…]]) are added. The reaction is incubated for 75 min (ambient temperature) and stopped by the addition of 180 μL of 6.4% trichloroacetic acid and incubated for 20 min on ice. […]

T1 sequence (Q05397 whole entry): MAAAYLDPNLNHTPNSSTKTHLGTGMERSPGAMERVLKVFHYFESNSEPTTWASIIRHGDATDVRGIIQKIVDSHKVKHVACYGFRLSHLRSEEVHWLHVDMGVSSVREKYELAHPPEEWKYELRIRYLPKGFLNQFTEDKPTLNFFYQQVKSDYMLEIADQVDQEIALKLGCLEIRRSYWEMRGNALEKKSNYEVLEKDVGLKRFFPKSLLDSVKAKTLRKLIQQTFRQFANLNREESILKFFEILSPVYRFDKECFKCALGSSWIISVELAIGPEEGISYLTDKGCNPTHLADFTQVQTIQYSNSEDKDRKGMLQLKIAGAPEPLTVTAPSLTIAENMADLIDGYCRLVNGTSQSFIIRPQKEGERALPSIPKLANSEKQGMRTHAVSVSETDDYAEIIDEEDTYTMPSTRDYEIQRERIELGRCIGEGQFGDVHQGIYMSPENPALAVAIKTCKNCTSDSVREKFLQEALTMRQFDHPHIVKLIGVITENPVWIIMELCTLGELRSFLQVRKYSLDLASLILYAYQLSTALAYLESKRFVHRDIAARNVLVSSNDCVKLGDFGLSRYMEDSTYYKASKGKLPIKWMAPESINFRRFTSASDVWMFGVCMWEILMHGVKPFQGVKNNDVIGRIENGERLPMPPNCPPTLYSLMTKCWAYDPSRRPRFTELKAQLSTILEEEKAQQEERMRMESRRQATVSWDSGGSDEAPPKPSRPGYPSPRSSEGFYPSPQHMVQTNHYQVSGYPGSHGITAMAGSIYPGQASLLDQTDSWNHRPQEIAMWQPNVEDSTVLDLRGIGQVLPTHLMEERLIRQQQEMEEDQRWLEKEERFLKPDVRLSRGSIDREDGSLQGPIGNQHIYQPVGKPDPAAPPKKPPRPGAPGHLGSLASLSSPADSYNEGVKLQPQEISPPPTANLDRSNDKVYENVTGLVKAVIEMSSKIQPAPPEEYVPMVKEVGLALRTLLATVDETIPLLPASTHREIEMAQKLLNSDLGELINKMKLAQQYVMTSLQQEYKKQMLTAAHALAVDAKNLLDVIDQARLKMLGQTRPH

IC50 [1]	IC50 [2]	Compound
1 nM	> 10000 nM	COc1cc(N2CCN(C(C)(C)C)CC2)c(C)cc1Nc1ncc(C(F)(F)F)c(N[C@@H]2CCCC[C@H]2N(C)S(C)(=O)=O)n1 [Example I-158]
0.49 nM	1140 nM	COCCN1CCC(NC(=O)c2cc(OC)c(Nc3ncc(Cl)c(N[C@@H]4CCC[C@H]4N(C)S(C)(=O)=O)n3)cc2Cl)CC1 [Example I-166]
0.32 nM	641 nM	COc1cc(C(=O)NC2CCOCC2)c(C)cc1Nc1ncc(C(F)(F)F)c(N[C@@H]2CCC[C@H]2NS(C)(=O)=O)n1 [Example I-195]
